Experimental data: patent US11028051B2, “Tetrahydroquinoline-based bromodomain inhibitors” (St. Jude Children's Research Hospital, priority 2016, dated 2021)

Experiments:
Assay in all cases: competitive TR-FRET assay, BET-BD with acetylated peptide ligand
Type in all cases: binding
[1] = biological target: BRD2-BD1 (Homo sapiens (Human), UniProt P25440); conditions: BRD2-BD1; Table 11 additional modifications; read-out: 2.1 EC50
Method: (§1) Inhibitor potency was determined using a competitive TR-FRET assay as detailed herein, measuring interaction of the respective BET-BD with an acetylated peptide ligand (Table 2).

[2] = biological target: BRD2-BD2 (Homo sapiens (Human), UniProt P25440); conditions: for EC50: BRD2-BD2, Table 11 additional modifications, read-out: 2.2 EC50; for 2.1/2.2: ratio of BRD2-BD1 EC50 to BRD2-BD2 EC50 (selectivity)
Method: as §1

[3] = biological target: BRD3-BD1 (Homo sapiens (Human), UniProt Q15059); conditions: BRD3-BD1; Table 11 additional modifications; read-out: 3.1 EC50
Method: as §1

[4] = biological target: BRD4-BD1 (Homo sapiens (Human), UniProt O60885); conditions: BRD4-BD1; Table 11 additional modifications; read-out: 4.1 EC50
Method: as §1

[5] = biological target: BRD4-BD2 (Homo sapiens (Human), UniProt O60885); conditions: BRD4-BD2; Table 11 additional modifications; read-out: 4.2 EC50
Method: as §1

[6] = biological target: BRDT (Homo sapiens, UniProt Q58F21); conditions: BRDT; Table 11 additional modifications; read-out: BRDT EC50
Method: as §1

Chain of BRD2-BD1 (P25440 74-180): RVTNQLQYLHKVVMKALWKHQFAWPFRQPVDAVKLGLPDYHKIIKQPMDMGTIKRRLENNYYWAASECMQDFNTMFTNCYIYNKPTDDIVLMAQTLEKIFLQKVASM
Chain of BRD3-BD1 (Q15059 34-140): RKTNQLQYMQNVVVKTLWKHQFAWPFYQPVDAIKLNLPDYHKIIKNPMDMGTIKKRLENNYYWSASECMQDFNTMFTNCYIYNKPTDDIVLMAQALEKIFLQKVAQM
Chain of BRD2-BD2 (P25440 344-453): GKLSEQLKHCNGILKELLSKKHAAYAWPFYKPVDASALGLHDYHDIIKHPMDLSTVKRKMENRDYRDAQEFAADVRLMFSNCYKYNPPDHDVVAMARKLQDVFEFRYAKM

EC50 [1] | EC50 [2] | 2.1/2.2 [2] | EC50 [3] | EC50 [4] | EC50 [5] | EC50 [6] | SMILES
0.85 µM | 0.29 µM | 2.9 | 0.62 µM | 0.67 µM | 0.23 µM | 5.9 µM | CC(=O)Nc1cccc(-c2ccc3c(c2)[C@H](NC(=O)OC(C)C)C[C@H](C)N3C(C)=O)c1 [compound 1]
81 µM | 0.08 µM | >1000 | 1.6 µM | 4.8 µM | 81 µM | 10 µM | COC(=O)c1cccc(N[C@@H]2C[C@H](C)N(C(C)=O)c3ccc(-c4cccc(NC(C)=O)c4)cc32)c1 [compound 7]
12 µM | 14 µM | 0.86 | 10 µM | 47 µM | 15 µM | 10 µM | CC(=O)Nc1cccc(-c2ccc3c(c2)[C@H](N)C[C@H](C)N3C(C)=O)c1 [compound 9]
3.2 µM | 0.2 µM | 16 | 1.6 µM | 3.4 µM | 51 µM | 4.3 µM | CC(=O)Nc1cccc(-c2ccc3c(c2)[C@H](Nc2ccc(N(C)C(C)=O)cc2)C[C@H](C)N3C(C)=O)c1 [compound 11]
0.93 µM | 0.03 µM | 31 | 0.59 µM | 1.5 µM | 0.04 µM | 1.8 µM | CC(=O)Nc1cccc(-c2ccc3c(c2)[C@H](Nc2ccc4c(c2)COC4=O)C[C@H](C)N3C(C)=O)c1 [compound 12]
1.8 µM | 0.09 µM | 20 | 1.19 µM | 2 µM | 0.06 µM | 2.6 µM | CC(=O)Nc1cccc(-c2ccc3c(c2)[C@H](Nc2ccc4c(c2)OCO4)C[C@H](C)N3C(C)=O)c1 [compound 14]
7 µM | 0.11 µM | 64 | 10 µM | 7 µM | 0.1 µM | 0.7 µM | COC(=O)c1ccccc1N[C@@H]1C[C@H](C)N(C(C)=O)c2ccc(-c3cccc(NC(C)=O)c3)cc21 [compound 15]
9.8 µM | 0.98 µM | 10 | 6.4 µM | 13 µM | 1.9 µM | 17 µM | CC(=O)Nc1cccc(-c2ccc3c(c2)[C@H](Nc2cncnc2)C[C@H](C)N3C(C)=O)c1 [compound 16]
16 µM | 83 µM | 0.20 | 12 µM | 33 µM | 19 µM |  | CC(=O)Nc1cccc(-c2ccc3c(c2)[C@H](NC(=O)CC(C)C)C[C@H](C)N3C(C)=O)c1 [compound 73]
11 µM | 17 µM | 0.65 | 9.8 µM | 19 µM | 77 µM |  | CC(=O)Nc1cccc(-c2ccc3c(c2)[C@H](NC(=O)CCc2ccccc2)C[C@H](C)N3C(C)=O)c1 [compound 74]
53 µM | 53 µM | 1.0 | 36 µM | 53 µM | 53 µM |  | CC(=O)Nc1cccc(-c2ccc3c(c2)[C@H](NCc2ccc(C(F)(F)F)cc2)C[C@H](C)N3C(C)=O)c1 [compound 75]
3.4 µM | 0.27 µM | 12 | 2.3 µM | 3.2 µM | 0.65 µM |  | CC(=O)Nc1ccc(N[C@@H]2C[C@H](C)N(C(C)=O)c3ccc(-c4cccc(NC(C)=O)c4)cc32)cc1 [compound 76]
16 µM | 9.7 µM | 1.6 | 10 µM | 15 µM | 14 µM |  | CC(=O)N1c2ccc(-c3ccc4c(c3)OCCO4)cc2[C@H](NC(=O)OC(C)C)C[C@@H]1C [compound 77]
7.7 µM | 2.9 µM | 2.6 | 4 µM | 6.1 µM | 6.7 µM |  | CC(=O)N1c2ccc(-c3cccc(-n4cccn4)c3)cc2[C@H](NC(=O)OC(C)C)C[C@@H]1C [compound 78]
7.1 µM | 2.7 µM | 2.6 | 2.2 µM | 8.2 µM | 8.8 µM |  | CC(=O)N1c2ccc(-c3ccc4cc[nH]c4c3)cc2[C@H](NC(=O)OC(C)C)C[C@@H]1C [compound 79]
6.3 µM | 1.1 µM | 2.0 | 2.1 µM | 5.3 µM | 4 µM |  | CC(=O)N1c2ccc(-c3ccc4occc(=O)c4c3)cc2[C@H](NC(=O)OC(C)C)C[C@@H]1C [compound 80]
8 µM | 4.7 µM | 2.7 | 5.9 µM | 6.6 µM | 8.1 µM |  | CC(=O)N1c2ccc(-c3ccc4[nH]ccc4c3)cc2[C@H](NC(=O)OC(C)C)C[C@@H]1C [compound 81]
4 µM | 1.1 µM | 6.0 | 2.7 µM | 3.5 µM | 2 µM |  | COC(=O)c1ccoc1-c1ccc2c(c1)[C@H](NC(=O)OC(C)C)C[C@H](C)N2C(C)=O [compound 82]
7.5 µM | 1.6 µM | 1.7 | 4.3 µM | 6 µM | 3.4 µM |  | CCOC(=O)c1ccc(-c2ccc3c(c2)[C@H](NC(=O)OC(C)C)C[C@H](C)N3C(C)=O)o1 [compound 83]
2.5 µM | 0.46 µM | 2.5 | 0.99 µM | 2.1 µM | 3.5 µM |  | CC(=O)N1c2ccc(-c3cccc(NC(=O)OC(C)(C)C)c3)cc2[C@H](NC(=O)OC(C)C)C[C@@H]1C [compound 84]
13 µM | 1.2 µM | 3.6 | 4.8 µM | 8.5 µM | 12 µM |  | CC(=O)N1c2ccc(C3=CCCO3)cc2[C@H](NC(=O)OC(C)C)C[C@@H]1C [compound 85]
1.8 µM | 27 µM | 4.7 | 1 µM | 2.5 µM | 41 µM |  | CC(=O)N1c2ccc(-c3cc4ccccc4o3)cc2[C@H](NC(=O)OC(C)C)C[C@@H]1C [compound 86]
68 µM | 13 µM | 5.4 | 13 µM | 68 µM | 7.6 µM |  | CC(=O)N1c2ccc(-c3cccn(C)c3=O)cc2[C@H](NC(=O)OC(C)C)C[C@@H]1C [compound 87]
2.1 µM | 0.47 µM | 11 | 1.4 µM | 2.9 µM | 0.65 µM |  | CC(=O)N1c2ccc(-c3cccc(CN)c3)cc2[C@H](NC(=O)OC(C)C)C[C@@H]1C [compound 88]
1.6 µM | 0.43 µM | 0.067 | 0.87 µM | 1.4 µM | 1.7 µM |  | CC(=O)N1c2ccc(-c3cccc(CCO)c3)cc2[C@H](NC(=O)OC(C)C)C[C@@H]1C [compound 89]
33 µM | 0.13 µM | 3.1 | 4.9 µM | 13 µM | 0.17 µM |  | CC(=O)Nc1cccc(-c2ccc3c(c2)[C@H](Nc2ccc(C(=O)O)cc2)C[C@H](C)N3C(C)=O)c1 [compound 120]
